Patent US6972319B1, “Pituitary adenylate cyclase activating peptide (PACAP)receptor 3 (R3) agonists and their pharmacological methods of use” (priority 1999, dated 2005)
No end group written: not given here.

Assays:
PACAP-R3 [1] = target: T1, PACAP-R3 (Homo sapiens, UniProt P41587); conditions: literature (Gourlet et al., Xia et al.); b170: over R1 and R2; cited from earlier work
T1 sequence (P41587 24-438): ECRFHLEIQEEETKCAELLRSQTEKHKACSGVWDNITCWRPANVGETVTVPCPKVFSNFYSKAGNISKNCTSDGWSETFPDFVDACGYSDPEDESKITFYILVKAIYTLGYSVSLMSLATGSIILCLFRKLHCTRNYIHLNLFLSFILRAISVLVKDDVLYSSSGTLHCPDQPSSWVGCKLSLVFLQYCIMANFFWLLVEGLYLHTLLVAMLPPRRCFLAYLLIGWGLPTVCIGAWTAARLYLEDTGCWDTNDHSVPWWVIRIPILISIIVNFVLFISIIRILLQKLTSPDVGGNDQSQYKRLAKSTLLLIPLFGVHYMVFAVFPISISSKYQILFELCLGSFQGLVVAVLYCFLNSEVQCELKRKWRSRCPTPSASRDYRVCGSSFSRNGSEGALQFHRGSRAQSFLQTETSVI

PACAP-R2 = target: T2, PACAP-R2 (Homo sapiens, UniProt P32241); test: Cyclic AMP SPA on CHO cells transfected with PACAP-R2; assay type: cell-based; conditions: cAMP SPA, concentration at which 50% of maximum PACAP27 activity is achieved, NA = no detectable activities, read-out: R2 EC50
T2 construct: expressed in transfected cells; host or cells: CHO cells
T2 sequence (P32241 31-457): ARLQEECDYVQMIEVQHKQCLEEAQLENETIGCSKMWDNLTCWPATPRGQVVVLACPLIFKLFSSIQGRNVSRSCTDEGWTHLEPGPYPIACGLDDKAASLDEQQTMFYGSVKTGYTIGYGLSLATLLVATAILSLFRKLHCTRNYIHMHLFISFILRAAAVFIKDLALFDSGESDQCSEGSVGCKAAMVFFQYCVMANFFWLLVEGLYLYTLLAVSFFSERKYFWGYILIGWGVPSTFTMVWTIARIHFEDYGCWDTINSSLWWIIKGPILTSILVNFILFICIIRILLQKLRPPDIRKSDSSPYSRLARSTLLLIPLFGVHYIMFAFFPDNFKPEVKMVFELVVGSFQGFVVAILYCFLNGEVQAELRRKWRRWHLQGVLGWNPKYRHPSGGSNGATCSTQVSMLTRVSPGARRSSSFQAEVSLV
How it was run: (§1)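 cAMP SPA readout; CHO stable lines, 24 h culture before use. Peptide treatment 15 min, 37 C, buffer with IBMX 100 uM plus trypsin inhibitor and bacitracin. EC50 = conc. reaching half of max PACAP27 response; R3 selectivity = EC50(R2)/EC50(R3).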

[2] = Airway hyperresponsiveness in the primate acute asthma model; assay type: in vivo, cynomolgus monkeys (Macaca fascicularls); conditions: for Delta log10 PC100, Mean, Treated: aerosol 10 minutes before Ascaris suum antigen challenge, +24 hr minus baseline, R3P0 0.6, R3P76 3.0, R3P82 1.8 ug/kg; for % Inhibition of induced AHR: treated vs control, R3P0 0.6, R3P76 3.0, R3P82 1.8 ug/kg by inhalation
Description: Male cynomolgus monkeys (Macaca fascicularls) used in this study were maintained at constant temperature and humidity with a twelve hour light cycle. They were fed twice daily, except on an experimental day when food was withheld the night before the procedure. Water was available ad lib at all times.
Airway hyperresponsiveness (AHR)(baseline) was measured 1 week before the control (no treatment) antigen challenge, and again 24 hrs after antigen challenge. Antigen-induced airway hyperresponsiveness was measured by a fall in the PC100 (the concentration of methacholine required to cause a 100% increase in lung resistance) at 24 hr compared to baseline. After 2 weeks rest, another baseline measurement of AHR was performed. One week later, peptides of this invention were administered as an aerosol, 10 minutes before antigen challenge. After 24 hrs, AHR was again measured, and the fall in PC100 with treatment was compared to that without treatment.
Experimental Procedure. On each experimental day animals were anaesthetized with a ketamine/xylazine mixture (70:12 mg kg^−1 @ 0.1 ml kg^−1) while still in their cage. When unconscious they were brought into the primate laboratory where they were placed in a supine position on a heated water blanket on a trolley. Ophthalmic ointment was wiped onto each eye, and 0.2 ml lidocaine (2%,) sprayed onto the larynx and over the back of the throat. The Jaws were held apart by a jaw spreader and a cuffed 5.0 gauge endotracheal tube (with the end liberally smeared with xylocaine gel, 2%) was inserted with the aid of laryngoscope. The animal was then placed into a specially designed restraint chair such that the animal was in a slightly reclined but upright sitting position, secured only by a collar at the neck. A water-heated blanket surrounded the animal.
The endotracheal tube was connected to a Harvard Ventilator adjusted to deliver 30-35 breaths per minute. Airflow was measured by a Fleisch pneumotachograph and thoracic pressure was measured by a validyne pressure transducer (as the difference between the pressure at the distal end of the et tube and room pressure).
The pneumotachograph and validyne were connected to a pre-amplifier and then into an MI^2 respiratory analyser. […]
Antigen challenge: This was an inhalation challenge with Ascaris suum. […] 30 breaths of antigen were administered after which the acute bronchoconstriction was monitored for 15 min. […]
Methacholine challenge: Methacholine dose response curves were carried out to assess the airway hyperresponsiveness. In the acute model, this was measured at +24 hour and compared to the responsiveness 7 days before treatment. […] The aerosol was administered for 15 breaths and then lung resistance was monitored for ten minutes. […]

PACAP-R3 [3] = target: T1, PACAP-R3; test: Cyclic AMP SPA on CHO cells expressing PACAP R3; assay type: cell-based; design: expressed in transfected cells; host or cells: CHO cells (Geneticin selection)
How it was run: as §1

Row | Compound | PACAP-R3 selectivity (PACAP-R3 [1]) | EC50 (PACAP-R2) | Delta log10 PC100, Mean, Treated [2] | % Inhibition of induced AHR [2] | EC50 (PACAP-R3 [3]; cAMP SPA, CHO cells transfected with PACAP-R3, concentration at which 50% of maximum PACAP27 activity is achieved, NA = no detectable activities, read-out: R3 EC50) | R3 Selectivity (PACAP-R3 [3]; ratio of EC50 at R2 versus EC50 at R3)
1 | Helodermin | ~100 fold | – | – | – | – | –
2 | HSDAVFTDNYTRLRKQVAVKKYLQSIKNKRY [Peptide R3P82] | – | 10 nM | −0.067 | 88% | 0.4 nM | 23
3 | CC[C@H](C)[C@H](NC(=O)[C@@H](NC(=O)[C@H](CC(N)=O)NC(=O)[C@H](CC(C)C)NC(=O)[C@H](Cc1ccc(O)cc1)NC(=O)[C@H](Cc1c[nH]cn1)NC(=O)[C@H](CCCCN)NC(=O)[C@H](C)NC(=O)[C@H](C)NC(=O)[C@H](CC(C)C)NC(=O)[C@H](CCC(N)=O)NC(=O)[C@H](CCCCN)NC(=O)[C@H](CCCNC(=N)N)NC(=O)[C@H](CC(C)C)NC(=O)[C@H](CCCNC(=N)N)NC(=O)[C@@H](NC(=O)[C@H](Cc1ccc(O)cc1)NC(=O)[C@H](CCC(N)=O)NC(=O)[C@H](CC(=O)O)NC(=O)[C@@H](NC(=O)[C@H](Cc1ccccc1)NC(=O)[C@@H](NC(=O)[C@H](C)NC(=O)[C@H](CC(=O)O)NC(=O)[C@H](CO)NC(=O)[C@@H](N)Cc1c[nH]cn1)C(C)C)[C@@H](C)O)[C@@H](C)O)[C@@H](C)O)C(=O)N[C@@H](CCCCN)C(=O)N[C@@H](CC(N)=O)C(=O)N[C@@H](CCCCN)C(=O)N[C@@H](CCCNC(=N)N)C(=O)N[C@@H](Cc1ccc(O)cc1)C(=O)O [Peptide R3P76] | – | > 150 nM | +0.047 | 100% | – | –
